US20250313563A1, “GLYCOGEN SYNTHASE KINASE 3 INHIBITORS AND USES THEREOF” (The Broad Institute, Inc., priority 2022, published 2025)
Like-named read-outs stand apart in the source and are kept apart here.

Columns and labels:
[1] = molecular target: GSK3b (GST-full length GSK3b) (Homo sapiens (Human), UniProt P49841); experiment: GSK3b TR-FRET kinase assay; assay type: biochemical
Outline: (§1)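 Full-length GST-tagged human enzyme (1 nM) is exposed to test compound for 30 min before substrates are added. Phosphorylation of a primed biotinylated glycogen synthase peptide proceeds 100 min at room temperature at low ATP (4 μM α; 2 μM β) or high ATP (1 mM). Product is quantified by TR-FRET.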

[2] = molecular target: GSK3α (GST-full length GSK3α) (Homo sapiens (Human), UniProt P49840); experiment: GSK3α TR-FRET kinase assay; assay type: biochemical
GSK3α (GST-full length GSK3α), sequence (P49840 whole entry): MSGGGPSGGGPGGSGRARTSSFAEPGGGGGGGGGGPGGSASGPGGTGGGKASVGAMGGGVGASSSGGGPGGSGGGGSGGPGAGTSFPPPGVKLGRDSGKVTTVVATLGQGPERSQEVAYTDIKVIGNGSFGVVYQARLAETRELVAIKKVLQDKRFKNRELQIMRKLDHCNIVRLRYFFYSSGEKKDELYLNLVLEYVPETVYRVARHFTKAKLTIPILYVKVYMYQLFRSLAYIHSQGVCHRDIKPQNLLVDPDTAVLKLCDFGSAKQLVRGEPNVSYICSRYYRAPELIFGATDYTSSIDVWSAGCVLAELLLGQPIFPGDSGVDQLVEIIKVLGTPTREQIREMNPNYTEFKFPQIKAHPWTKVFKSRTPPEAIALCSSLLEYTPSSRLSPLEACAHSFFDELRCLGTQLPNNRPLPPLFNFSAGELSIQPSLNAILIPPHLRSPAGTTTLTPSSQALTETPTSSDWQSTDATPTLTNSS
Outline: as §1

[3] = 1 nM GSK3b, 2 μM ATP, 30 minute preincubation, Table 16, read-out: GSK3-B TR-FRET BIOCHEMICAL (TR-FRET), IC50
[4] = 1 nM GSK3α, 4 μM ATP, 30 minute preincubation, Table 16, read-out: GSK3-A TR-FRET BIOCHEMICAL (TR-FRET), IC50
[5] = 1 nM GSK3b, 2 μM ATP, 30 minute preincubation, Table 16, read-out: GSK3-B TR-FRET BIOCHEMICAL (TR-FRET)
[6] = 1 nM GSK3α, 4 μM ATP, 30 minute preincubation, Table 16, read-out: GSK3-A TR-FRET BIOCHEMICAL (TR-FRET)
[7] = 1 nM GSK3b, 2 μM ATP, 30 minute preincubation, read-out: GSK3-B TR-FRET BIOCHEMICAL (TR-FRET), IC50
[8] = 1 nM GSK3α, 4 μM ATP, 30 minute preincubation, read-out: GSK3-A TR-FRET BIOCHEMICAL (TR-FRET), IC50
[9] = read-out: GSK3-B (TR-FRET 1 mM ATP), GMean, IC50, 1 mM ATP, geometric mean
[10] = read-out: GSK3-A (TR-FRET 1 mM ATP), GMean, IC50, 1 mM ATP, geometric mean

GSK3b (GST-full length GSK3b), sequence (P49841 whole entry): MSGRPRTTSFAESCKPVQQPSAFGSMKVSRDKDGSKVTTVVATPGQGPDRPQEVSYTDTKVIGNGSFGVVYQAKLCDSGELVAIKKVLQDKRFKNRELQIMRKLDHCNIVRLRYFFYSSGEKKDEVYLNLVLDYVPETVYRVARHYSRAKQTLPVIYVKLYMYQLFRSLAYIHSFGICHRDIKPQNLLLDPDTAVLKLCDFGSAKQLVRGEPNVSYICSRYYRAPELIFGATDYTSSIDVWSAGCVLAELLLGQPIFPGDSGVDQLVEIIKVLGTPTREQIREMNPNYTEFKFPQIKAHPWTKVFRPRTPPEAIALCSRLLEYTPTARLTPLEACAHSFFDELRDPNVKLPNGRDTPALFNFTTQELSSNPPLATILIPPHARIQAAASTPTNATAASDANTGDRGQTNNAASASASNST

Row | SMILES | IC50 [1, 3] | IC50 [2, 4] | also measured
1 | CC1(C)CC(=O)C2=C(C1)Nc1n[nH]cc1C21CN(c2ccncn2)C1 [Compound 909209] | 1000 to 5000 nM | 1000 to 5000 nM | 
2 | CC1(C)CC(=O)C2=C(C1)Nc1n[nH]cc1[C@]21C[C@H](OCc2ccccc2)C1 [Compound 909210] |  |  | IC50 [1, 5]: 100 to 1000 nM; IC50 [2, 6]: 100 to 1000 nM
3 | CC1(C)CC(=O)C2=C(C1)Nc1n[nH]cc1[C@]21C[C@@H](OCc2ccccc2)C1 [Compound 909211] |  |  | IC50 [1, 5]: 100 to 1000 nM; IC50 [2, 6]: ≤ 100 nM
4 | CC[C@]1(c2cc(-c3ccnc(C)c3)ccc2F)C2=C(CC(C)(C)CC2=O)Nc2n[nH]cc21 [Compound 909213] | > 5000 nM | > 5000 nM | 
5 | CC[C@@]1(c2ccccc2)C2=C(Nc3n[nH]cc31)[C@@H](C)C[C@@H](C)C2=O [Compound 909216] | 100 to 1000 nM | 100 to 1000 nM | 
6 | CC[C@]1(c2ccccc2)C2=C(Nc3n[nH]cc31)[C@@H](C)C[C@@H](C)C2=O [Compound 909217] | 1000 to 5000 nM | 100 to 1000 nM | 
7 | CC[C@]1(c2ccccc2)C2=C(Nc3n[nH]cc31)[C@H](C)C[C@H](C)C2=O [Compound 909218] | > 5000 nM | > 5000 nM | 
8 | CC[C@@]1(c2ccccc2)C2=C(Nc3n[nH]cc31)[C@H](C)C[C@H](C)C2=O [Compound 909219] | > 5000 nM | > 5000 nM | 
9 | CC1(C)CC(=O)C2=C(C1)Nc1n[nH]cc1C21COC2(CN(C(=O)OC(C)(C)C)C2)C1 (stereo not drawn) [Compound 911083] |  |  | IC50 [1, 7]: 1000 to 5000 nM; IC50 [2, 8]: 100 to 1000 nM
10 | CCC1(c2cccc(C(F)(F)F)c2)C2=C(CC(C)NC2=O)Nc2n[nH]cc21 (stereo not drawn) [Compound 911956] |  |  | IC50 [1, 7]: 100 to 1000 nM; IC50 [2, 8]: ≤ 100 nM
11 | CC1OCCC12C1=C(CC(C)(C)CC1=O)Nc1n[nH]cc12 (stereo not drawn) [Compound 911958] | > 5000 nM | > 5000 nM | 
12 | CC1(C)CC(=O)C2=C(C1)Nc1n[nH]cc1C21COC2(CCC2)C1 (stereo not drawn) [Compound 911973] |  |  | IC50 [1, 7]: 100 to 1000 nM; IC50 [2, 8]: 100 to 1000 nM
13 | CC[C@]1(c2cccc(C(F)(F)F)c2)C2=C(CCN(Cc3ccccc3)C2=O)Nc2n[nH]cc21 [Compound 912006] |  |  | IC50 [1, 7]: > 5000 nM; IC50 [2, 8]: > 5000 nM

Now from value to compound, other results behind:

Row | IC50 [1, 3] | IC50 [2, 4] | SMILES | also measured
14 | ≤ 100 nM | ≤ 100 nM | CCN(C(C)=O)c1cccc([C@]2(CC)C3=C(CC(C)(C)CC3=O)Nc3n[nH]cc32)c1 [Compound 909214] | 
15 | 1000 to 5000 nM | 100 to 1000 nM | CCN(C(C)=O)c1cccc(C2(CC)C3=C(CC(C)(C)CC3=O)Nc3n[nH]cc32)c1 (stereo not drawn) [Compound 909215] | 
16 | 100 to 1000 nM | ≤ 100 nM | CC[C@@]1(c2cc(-c3cnn(C)c3)ccc2F)C2=C(CC(C)(C)CC2=O)Nc2n[nH]cc21 [Compound 909220] | 
17 | > 5000 nM | > 5000 nM | CC[C@]1(c2cc(-c3cnn(C)c3)ccc2F)C2=C(CC(C)(C)CC2=O)Nc2n[nH]cc21 [Compound 909223] | 
18 | > 5000 nM | 1000 to 5000 nM | CC[C@H]1CCN1c1cccc([C@@]2(CC)C3=C(CC(C)(C)CC3=O)Nc3n[nH]cc32)c1 [Compound 911972] | 
19 | ≤ 100 nM | ≤ 100 nM | CCC1(c2cccc(N(C)c3cccnn3)c2)C2=C(CC(C)(C)CC2=O)Nc2n[nH]cc21 (stereo not drawn) [Compound 911975] | IC50 [1, 9]: 1000 to 5000 nM; IC50 [2, 10]: 100 to 1000 nM
20 | > 5000 nM | 100 to 1000 nM | CCC1(c2cccc(N(C)c3cccnn3)c2)C2=C(CC(C)(C)CC2=O)Nc2n[nH]cc21 (stereo not drawn) [Compound 911976] | 
21 | > 5000 nM | 1000 to 5000 nM | CCC1(c2cccc(-c3ccnc(OC)c3)c2)C2=C(CC(C)(C)CC2=O)Nc2n[nH]cc21 (stereo not drawn) [Compound 911989] | 
22 | ≤ 100 nM | ≤ 100 nM | CC[C@@]1(c2cccc(-c3c(C)nn(C)c3C)c2)C2=C(CC(C)(C)CC2=O)Nc2n[nH]cc21 [Compound 911990] | IC50 [1, 9]: 100 to 1000 nM; IC50 [2, 10]: ≤ 100 nM
23 | > 5000 nM | 100 to 1000 nM | CCC1(c2cccc(-c3c(C)nn(C)c3C)c2)C2=C(CC(C)(C)CC2=O)Nc2n[nH]cc21 (stereo not drawn) [Compound 911991] | 
24 | ≤ 100 nM | ≤ 100 nM | CCC1(c2cccc(-c3ccnn3C)c2)C2=C(CC(C)(C)CC2=O)Nc2n[nH]cc21 (stereo not drawn) [Compound 911992] | IC50 [1, 9]: 100 to 1000 nM; IC50 [2, 10]: ≤ 100 nM
25 | > 5000 nM | 1000 to 5000 nM | CCC1(c2cccc(N3CCc4ccncc43)c2)C2=C(CC(C)(C)CC2=O)Nc2n[nH]cc21 (stereo not drawn) [Compound 912004] | 
26 | ≤ 100 nM | ≤ 100 nM | CCC1(c2cccc(N(CCc3ccccc3)C(C)=O)c2)C2=C(CC(C)(C)CC2=O)Nc2n[nH]cc21 (stereo not drawn) [Compound 912064] | 
27 | 100 to 1000 nM | ≤ 100 nM | CCC1(c2cccc(N(C)C(=O)CCc3ccccc3)c2)C2=C(CC(C)(C)CC2=O)Nc2n[nH]cc21 (stereo not drawn) [Compound 912066] | 
